Measured values as given in PubChem BioAssay (NCI).
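Results reflect a 48-hour exposure of cells in 96-well plates to compound at five concentrations. At the TGI there is no net growth.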

How the values were obtained:
Experiment in all cases: NCI tumour cell line growth inhibition, 48 h
786-0 renal = tested on: 786-0 renal
A498 renal = tested on: A498 renal
A549 NSCLC = tested on: A549 NSCLC
ACHN renal = tested on: ACHN renal
CAKI-1 renal = tested on: CAKI-1 renal
CCRF-CEM leukemia = tested on: CCRF-CEM leukemia
COLO 205 colon = tested on: COLO 205 colon
DLD-1 colon = tested on: DLD-1 colon
DMS 114 small cell lung = tested on: DMS 114 small cell lung
DMS 273 small cell lung = tested on: DMS 273 small cell lung
EKVX NSCLC = tested on: EKVX NSCLC
HCC-2998 colon = tested on: HCC-2998 colon
HCT-116 colon = tested on: HCT-116 colon
HCT-15 colon = tested on: HCT-15 colon
HL-60(TB) leukemia = tested on: HL-60(TB) leukemia
HOP-18 NSCLC = tested on: HOP-18 NSCLC
HOP-62 NSCLC = tested on: HOP-62 NSCLC
HT29 colon = tested on: HT29 colon
IGROV1 ovarian = tested on: IGROV1 ovarian
K-562 leukemia = tested on: K-562 leukemia
KM12 colon = tested on: KM12 colon
KM20L2 colon = tested on: KM20L2 colon
LOX IMVI melanoma = tested on: LOX IMVI melanoma
LXFL 529 NSCLC = tested on: LXFL 529 NSCLC
M14 melanoma = tested on: M14 melanoma
M19-MEL melanoma = tested on: M19-MEL melanoma
MALME-3M melanoma = tested on: MALME-3M melanoma
MOLT-4 leukemia = tested on: MOLT-4 leukemia
NCI-H226 lung = tested on: NCI-H226 lung
NCI-H23 lung = tested on: NCI-H23 lung
NCI-H460 lung = tested on: NCI-H460 lung
NCI-H522 lung = tested on: NCI-H522 lung
OVCAR-3 ovarian = tested on: OVCAR-3 ovarian
OVCAR-4 ovarian = tested on: OVCAR-4 ovarian
OVCAR-5 ovarian = tested on: OVCAR-5 ovarian
OVCAR-8 ovarian = tested on: OVCAR-8 ovarian
RXF 393 renal = tested on: RXF 393 renal
RXF-631 renal = tested on: RXF-631 renal
SF-268 CNS = tested on: SF-268 CNS
SF-295 CNS = tested on: SF-295 CNS
SF-539 CNS = tested on: SF-539 CNS
SK-MEL-2 melanoma = tested on: SK-MEL-2 melanoma
SK-MEL-28 melanoma = tested on: SK-MEL-28 melanoma
SK-MEL-5 melanoma = tested on: SK-MEL-5 melanoma
SK-OV-3 ovarian = tested on: SK-OV-3 ovarian
SN12C renal = tested on: SN12C renal
SNB-19 CNS = tested on: SNB-19 CNS
SNB-75 CNS = tested on: SNB-75 CNS
SNB-78 CNS = tested on: SNB-78 CNS
SR leukemia = tested on: SR leukemia
SW-620 colon = tested on: SW-620 colon
TK-10 renal = tested on: TK-10 renal
U251 CNS = tested on: U251 CNS
UACC-257 melanoma = tested on: UACC-257 melanoma
UACC-62 melanoma = tested on: UACC-62 melanoma
UO-31 renal = tested on: UO-31 renal
XF 498 CNS = tested on: XF 498 CNS

Measured: TGI

Cc1ccnc(NS(=O)(=O)c2ccc(NC3=CC(=O)C(=O)c4ccccc43)cc2)n1
> 100 µM: all assays above
